Patent US20240139026A1, “Ophthalmic Lenses And Methods For Correcting, Slowing, Reducing, And/Or Controlling The Progression Of Myopia In Conjunction With Use Of Atropine Or Related Compounds” (Brien Holden Vision Institute Limited, priority 2020, published 2024)

What was measured:
[1] = tested on: myopic eye of an individual; test: Spherical aberration of combined spectacle lens and eye system with Atropine-enlarged pupil; assay type: in vivo; conditions: -2.00 D myope; pupillary diameter increase from about 3 mm to about 6 mm with use of Atropine
Description: FIG. 1A illustrates a schematic plot of pupil diameters resulting from use of Atropine, a widely used muscarinic receptor antagonist and a pharmaceutical agent for myopia therapy. […] Considering FIG. 1A, it is observed that use of 0.01% Atropine which to date is the lowest concentration used for treatment of myopia in individuals, increases the photopic pupillary diameter by approximately 1 mm. Increasing the concentration to anywhere from 0.025% to 0.1% Atropine, increases the photopic pupil size from about 2 mm to about 3 mm. With the highest concentration of 0.5% Atropine, the increase in photopic pupil size was largest and at about 3 mm. An increase in pupil size increases aberrations of the eye. […] FIG. 1B illustrates the increase in higher order aberrations from 3rd to 6th order as determined by aberrometry for the myopic eye of an individual who has a distance refractive error of approximately −2.00 D. It is observed that there is a significant increase in aberrations with a larger pupil. An increase in the pupil size may result in a functional decrement in visual performance and one or more unwanted effects such as poorer visual performance, reduced contrast, blurred vision, increased glare and increased photophobia (sensitivity to light). […]

[2] = tested on: amplitude of accommodation; conditions: concentrations greater than 0.1% Atropine; children aged 6-12 years; cited from earlier work
myopia progression = conditions: cited from earlier work

For `CN1[C@@H]2CC[C@H]1C[C@@H](OC(=O)C(CO)c1ccccc1)C2` (stereo partly shown) [Atropine], the “effective increase of the spherical aberration of the combined spectacle lens and eye system” value [1] is listed as “about +0.50 D”, the “reduction of amplitude of accommodation” value [2] is listed as “reduce the amplitude of accommodation by more than half” and the “concentration dependence of efficacy” value (myopia progression; Atropine eye drops 0.01% to 1.0%) is listed as “the higher the concentration, the greater the efficacy”. For the same molecule, the “efficacy in slowing myopia progression” value (myopia progression; used topically) was “demonstrated a level of efficacy in slowing myopia progression”.
